#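 Test compounds were applied to cells in 96-well plates for 48 hours at 5 doses. GI50 marks 50% less growth.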 Active and inactive are the calls of the source. Cut-off read from the data, not from the text of the source: active = GI50 up to about 1.1 µM and inactive = higher.
# Tests used:
# Assay in all cases: inhibition of tumour cell growth, NCI panel, 48 h
# SK-MEL-28 = tested on: SK-MEL-28
# KM12 = tested on: KM12
# DLD-1 = tested on: DLD-1
# SK-MEL-5 = tested on: SK-MEL-5
# ACHN = tested on: ACHN
# CCRF-CEM = tested on: CCRF-CEM
# HOP-62 = tested on: HOP-62
# SW-620 = tested on: SW-620
# HL-60 = tested on: HL-60
# UACC-257 = tested on: UACC-257
# NCI-H522 = tested on: NCI-H522
# OVCAR-5 = tested on: OVCAR-5
# K562 = tested on: K562
# HCT-116 = tested on: HCT-116
# SF-268 = tested on: SF-268
# M19-MEL = tested on: M19-MEL
# HOP-92 = tested on: HOP-92
# NCI-H23 = tested on: NCI-H23
# UACC-62 = tested on: UACC-62
# UO-31 = tested on: UO-31
# A498 = tested on: A498
# COLO 205 = tested on: COLO 205
# HT-29 = tested on: HT-29
# SF-539 = tested on: SF-539
# TK-10 = tested on: TK-10
# OVCAR-3 = tested on: OVCAR-3
# NCI-H460 = tested on: NCI-H460
# HCC 2998 = tested on: HCC 2998
# SNB-19 = tested on: SNB-19
# OVCAR-8 = tested on: OVCAR-8
# SK-OV-3 = tested on: SK-OV-3
# NCI-H226 = tested on: NCI-H226
# A549 = tested on: A549
# SF-295 = tested on: SF-295
# IGROV-1 = tested on: IGROV-1
# U-251 = tested on: U-251
# HOP-18 = tested on: HOP-18
# SNB-75 = tested on: SNB-75
# LXFL 529 = tested on: LXFL 529
# CAKI-1 = tested on: CAKI-1
# LOX IMVI = tested on: LOX IMVI
# HCT-15 = tested on: HCT-15
# DMS-114 = tested on: DMS-114
# RPMI-8226 = tested on: RPMI-8226
# MOLT-4 = tested on: MOLT-4
# M14 = tested on: M14
# EKVX = tested on: EKVX
# SK-MEL-2 = tested on: SK-MEL-2
# OVCAR-4 = tested on: OVCAR-4
# RXF 393 = tested on: RXF 393
# KM-20L2 = tested on: KM-20L2
# DMS-273 = tested on: DMS-273
# SNB-78 = tested on: SNB-78
# Malme-3M = tested on: Malme-3M
# SN12C = tested on: SN12C
# 786-0 = tested on: 786-0
compound,measurement,setting,value
Nc1c(C(=O)N/N=C/c2ccc(Cl)cc2)sc(=S)n1-c1ccccc1,GI50,SK-MEL-28,41.9 µM (inactive)
same,GI50,KM12,> 100 µM (inactive)
same,GI50,DLD-1,> 100 µM (inactive)
same,GI50,SK-MEL-5,58.2 µM (inactive)
same,GI50,ACHN,> 100 µM (inactive)
same,GI50,CCRF-CEM,22.3 µM (inactive)
same,GI50,HOP-62,> 100 µM (inactive)
same,GI50,SW-620,> 100 µM (inactive)
same,GI50,HL-60,> 100 µM (inactive)
same,GI50,UACC-257,> 100 µM (inactive)
same,GI50,NCI-H522,31.6 µM (inactive)
same,GI50,OVCAR-5,> 100 µM (inactive)
same,GI50,K562,4.09 µM (inactive)
same,GI50,HCT-116,> 100 µM (inactive)
same,GI50,SF-268,40.8 µM (inactive)
same,GI50,M19-MEL,> 100 µM (inactive)
same,GI50,HOP-92,> 100 µM (inactive)
same,GI50,NCI-H23,> 100 µM (inactive)
same,GI50,UACC-62,> 100 µM (inactive)
same,GI50,UO-31,> 100 µM (inactive)
same,GI50,A498,> 100 µM (inactive)
same,GI50,COLO 205,> 100 µM (inactive)
same,GI50,HT-29,> 100 µM (inactive)
same,GI50,SF-539,62.8 µM (inactive)
same,GI50,TK-10,> 100 µM (inactive)
same,GI50,OVCAR-3,> 100 µM (inactive)
same,GI50,NCI-H460,89.1 µM (inactive)
same,GI50,HCC 2998,> 100 µM (inactive)
same,GI50,SNB-19,> 100 µM (inactive)
same,GI50,OVCAR-8,> 100 µM (inactive)
same,GI50,SK-OV-3,> 100 µM (inactive)
same,GI50,NCI-H226,> 100 µM (inactive)
same,GI50,A549,> 100 µM (inactive)
same,GI50,SF-295,> 100 µM (inactive)
same,GI50,IGROV-1,> 100 µM (inactive)
same,GI50,U-251,> 10 µM (inactive)
same,GI50,HOP-18,> 100 µM (inactive)
same,GI50,SNB-75,84.7 µM (inactive)
same,GI50,LXFL 529,> 100 µM (inactive)
NC(=S)Nc1nnc(-c2ccc(-c3nnc(NC(N)=S)o3)cc2)o1,GI50,SK-MEL-28,> 100 µM (inactive)
same,GI50,KM12,> 100 µM (inactive)
same,GI50,CAKI-1,> 100 µM (inactive)
same,GI50,DLD-1,> 100 µM (inactive)
same,GI50,SK-MEL-5,> 100 µM (inactive)
same,GI50,ACHN,> 100 µM (inactive)
same,GI50,CCRF-CEM,> 100 µM (inactive)
same,GI50,HOP-62,> 100 µM (inactive)
same,GI50,LOX IMVI,> 100 µM (inactive)
same,GI50,HCT-15,> 100 µM
same,GI50,SW-620,> 100 µM (inactive)
same,GI50,HL-60,> 100 µM (inactive)
same,GI50,UACC-257,> 100 µM (inactive)
same,GI50,NCI-H522,> 100 µM (inactive)
same,GI50,OVCAR-5,> 100 µM (inactive)
same,GI50,DMS-114,> 100 µM (inactive)
same,GI50,K562,> 100 µM (inactive)
same,GI50,HCT-116,> 100 µM (inactive)
same,GI50,SF-268,> 100 µM (inactive)
same,GI50,RPMI-8226,> 100 µM (inactive)
same,GI50,M19-MEL,> 100 µM (inactive)
same,GI50,HOP-92,> 100 µM (inactive)
same,GI50,NCI-H23,> 100 µM (inactive)
same,GI50,MOLT-4,> 100 µM (inactive)
same,GI50,M14,> 100 µM (inactive)
same,GI50,UACC-62,> 100 µM (inactive)
same,GI50,UO-31,> 100 µM (inactive)
same,GI50,A498,> 100 µM (inactive)
same,GI50,EKVX,> 100 µM (inactive)
same,GI50,COLO 205,> 100 µM (inactive)
same,GI50,SK-MEL-2,> 100 µM (inactive)
same,GI50,HT-29,> 100 µM (inactive)
same,GI50,OVCAR-4,> 100 µM (inactive)
same,GI50,SF-539,> 100 µM (inactive)
same,GI50,TK-10,> 100 µM (inactive)
same,GI50,OVCAR-3,> 100 µM (inactive)
same,GI50,RXF 393,> 100 µM (inactive)
same,GI50,NCI-H460,> 100 µM (inactive)
same,GI50,HCC 2998,> 100 µM (inactive)
same,GI50,KM-20L2,> 100 µM (inactive)
same,GI50,DMS-273,> 100 µM (inactive)
same,GI50,SNB-78,> 100 µM (inactive)
same,GI50,SNB-19,> 100 µM (inactive)
same,GI50,OVCAR-8,> 100 µM (inactive)
same,GI50,SK-OV-3,> 100 µM (inactive)
same,GI50,Malme-3M,> 100 µM (inactive)
same,GI50,NCI-H226,> 100 µM (inactive)
same,GI50,A549,> 100 µM (inactive)
same,GI50,SN12C,> 100 µM (inactive)
same,GI50,SF-295,> 100 µM (inactive)
same,GI50,IGROV-1,> 100 µM (inactive)
same,GI50,U-251,> 100 µM (inactive)
same,GI50,HOP-18,> 100 µM (inactive)
same,GI50,786-0,> 100 µM (inactive)
same,GI50,SNB-75,> 100 µM (inactive)
same,GI50,LXFL 529,> 100 µM (inactive)
O=C(Nc1ccc(Cl)cc1Cl)C1C(=O)C(=O)N(c2ccc(Cl)cc2Cl)C1=O (configuration not stated),GI50,SK-MEL-28,> 100 µM (inactive)
same,GI50,KM12,> 100 µM (inactive)
same,GI50,CAKI-1,> 100 µM (inactive)
same,GI50,DLD-1,> 100 µM (inactive)
same,GI50,SK-MEL-5,> 100 µM (inactive)
same,GI50,ACHN,> 100 µM (inactive)
same,GI50,HOP-62,> 100 µM (inactive)
same,GI50,LOX IMVI,> 100 µM (inactive)
same,GI50,HCT-15,> 100 µM
same,GI50,SW-620,> 100 µM (inactive)
same,GI50,HL-60,> 100 µM (inactive)
same,GI50,UACC-257,> 100 µM (inactive)
same,GI50,NCI-H522,> 100 µM (inactive)
same,GI50,OVCAR-5,> 100 µM (inactive)
same,GI50,DMS-114,> 100 µM (inactive)
same,GI50,HCT-116,99.1 µM (inactive)
same,GI50,SF-268,> 100 µM (inactive)
same,GI50,M19-MEL,> 100 µM (inactive)
same,GI50,NCI-H23,> 100 µM (inactive)
same,GI50,M14,> 100 µM (inactive)
same,GI50,UACC-62,> 100 µM (inactive)
same,GI50,UO-31,> 100 µM (inactive)
same,GI50,A498,> 100 µM (inactive)
same,GI50,EKVX,> 100 µM (inactive)
same,GI50,HT-29,> 100 µM (inactive)
same,GI50,OVCAR-4,> 100 µM (inactive)
same,GI50,SF-539,> 100 µM (inactive)
same,GI50,TK-10,> 100 µM (inactive)
same,GI50,OVCAR-3,38.5 µM (inactive)
same,GI50,RXF 393,37.8 µM (inactive)
same,GI50,NCI-H460,> 100 µM (inactive)
same,GI50,HCC 2998,> 100 µM (inactive)
same,GI50,KM-20L2,> 100 µM (inactive)
same,GI50,SNB-78,> 100 µM (inactive)
same,GI50,SNB-19,> 100 µM (inactive)
same,GI50,OVCAR-8,> 100 µM (inactive)
same,GI50,SK-OV-3,> 100 µM (inactive)
same,GI50,Malme-3M,> 100 µM (inactive)
same,GI50,NCI-H226,34.1 µM (inactive)
same,GI50,A549,> 100 µM (inactive)
same,GI50,SN12C,> 100 µM (inactive)
same,GI50,IGROV-1,> 100 µM (inactive)
same,GI50,U-251,> 100 µM (inactive)
same,GI50,HOP-18,> 100 µM (inactive)
same,GI50,786-0,> 100 µM (inactive)
same,GI50,SNB-75,> 100 µM (inactive)
same,GI50,LXFL 529,> 100 µM (inactive)

# Source: ChEMBL document CHEMBL1201862, “PubChem BioAssay data set” (2004)
